Data reported in patent publication EP0565593B1, “REDUCING PESTICIDAL INTERACTIONS IN CROPS” (priority 1990, dated 1992).
Several values for one entry are separate records, joined by “and”; a condition that tells them apart may be missing. Identical values can stand only once. Like-named read-outs stand apart in the source and are kept apart here.

Legend:
Corn = test: Multi-crop greenhouse test, herbicide POE (Examples 62-64; Tables 61-63); assay type: in vivo; conditions: COUNTER 15G and BEACON; Example 62
Procedure: (§1) Tests according to this invention in various crops indicate widespread application of the invention. In Examples 62-66 below are described tests with a variety of herbicides contacted with COUNTER® 15G in the presence and absence of MON-7400 (Antidote No. 12); MON-13900 (No. 1); MON-4660 (No. 16) and flurazole (No. 16). Those tests were conducted according to Procedures IV or V described above and illustrated further in other foregoing examples. Plants used in all tests were, for crops (as abbreviated in parentheses); cotton (COTT); soybean (SOBE); CORN, grain sorghum (GRSO); wheat (WHEA) and RICE, and the weeds giant foxtail (GIFT) and velvetleaf (VELE). The data in the tables below represent averages of two replications.
(§2) In this test the crops and weeds were planted 1.3 cm deep in 13.7 cm X 27.7 cm pans containing Dupo silt loam soil. The test safeners were applied in acetone solution and COUNTER 15G as dry granules to soil cover layers and incorporated by shaking in a bag. Treated cover layers were placed on seeded pans which were transferred to greenhouse benches and subirrigated. Herbicide was applied POE six (6) days after PPI initiation and observations of plant injury made ten (10) days later; results are shown in Table 61. The herbicide used in this example was BEACON (No. 8).
The test procedure described in Example 62 was repeated using ACCENT® (Herbicide No. 7) as the herbicide; the biocide and safeners were the same.

Shattercane (SHCA) = assay type: in vivo
Velvetleaf (VELE) = assay type: in vivo, Abutilon theophrasti
Giant foxtail (GIFT) [1] = test: whole plant or invertebrate; assay type: in vivo
Giant foxtail (GIFT) [2] = test: Greenhouse test Procedure VII (same examples); assay type: in vivo
Source text: This procedure describes interaction among herbicide, biocide and antidote when the biocide and the antidote is applied to a soil furrow containing crop seed before emergence of the crop and the herbicide is applied after emergence of the crop and weeds. The soil and planting depth was described in Procedure IV. The containers for comparison, the biocide and antidote applications to soil furrows were described in Procedure VI. In this procedure, the seed beds of the first, second, third and fourth containers are covered by soil layers not treated with herbicide. The containers were then placed on a bench in a greenhouse and subirrigated as required for the duration of the test. The herbicide, dispersed or dissolved in water containing 0.25% v/v nonionic surfactant (X-77) was applied by a track sprayer (187 L/ha) to the emerged plants of the second, third and fourth containers about five days after planting. All treatments were run in duplicate. Plant response was observed according to Procedure IV. Variations in this procedure will be noted in the examples.
In these tests (according to Procedure VII) the safeners in solution with acetone were applied in furrow to the soil, followed by COUNTER 15G granules at 227 g/305 m (8 oz./1000'). Applications were made in alternate rows in two separate 13.7 cm x 27.7 cm pans containing Dupo silt loam. Pans were seeded 1.3 cm deep, placed on benches in a greenhouse and subirrigated. BEACON was formulated in water with 0.25% v/v X-77 surfactant and applied by track sprayer at a rate of 187 L/Ha (20 gal/A). Weed species in this test were giant foxtail, shattercane and velvetleaf. The herbicide was applied five (5) days after PPI initiation and observation of test result (shown in Table 47) made eight (8) days later.
In Table 47 COUNTER 15G is abbreviated as "C" and the antidotes as "A" in the column headings which indicate the "C + A" ratios used in the tests. Control and COUNTER treatments are average of four (4) replications and COUNTER + Antidote treatments, average of 2 reps.

cotton (COTT) = test: Multi-crop greenhouse test, biocide, herbicide and safener applied to soil covers (Examples 65, 66; Tables 64, 65); assay type: in vivo
Procedure: as §1, §2
In another test in the several crops and weeds used in this test series, the herbicidal component was MON-12000 (No. 1); the other components were the same. the procedure used in this test was the same as that described in Example 62, modified to use a light overhead irrigation (about 0.32 cm/day) during days 4-7 of the test.
In yet another test in this series, XRD-498 (Herbicide No. 21) was used as the herbicidal component in contact with COUNTER 15G in the presence of the above safeners. The various components of the system (biocide, herbicide and safener) were applied concurrently to soil covers of the seeded plants.

[3] = Antidote 4.48 + Biocide No. 1 8.96 Kg/Ha PPI, Herb. No. 8 0.07, 5 DAP, before herbicide application
[4] = Antidote 4.48 + Biocide No. 1 8.96 Kg/Ha PPI, Herb. No. 8 0.07 POE, 13 DAP
[5] = Antidote 4.48 + Biocide No. 1 8.96 Kg/Ha PPI, Herbicide No. 7 0.28 POE, 13 days after planting
[6] = Table 14: Herbicide No. 7 (ACCENT) 0.84 Kg/Ha POE + Biocide No. 2 8.96 Kg/Ha PPI + antidote 4.48 Kg/Ha PPI, 13 days after planting, 8 days after herbicide
[7] = […], 13 days after planting, 8 days after herbicide
[8] = […], observed 9 days later (Table 29)
[9] = […], observed 9 days later (Table 30)
[10] = […], observed 10 days after herbicide application

O=C(OCc1ccccc1)c1sc(Cl)nc1C(F)(F)F [Antidote No. 7, 5-Thiazolecarboxylic acid, 2-chloro-4-(trifluoromethyl)-, (phenylmethyl) ester]
corn injury (Corn): effectively reduced

CC1(C)OC(c2ccco2)CN1C(=O)C(Cl)Cl (stereo not drawn) [Antidote No. 1, Oxazolidine, 3-(dichloroacetyl)-2,2-dimethyl-5-(2-furanyl)-]
corn injury (Corn): effectively reduced

CC1(C)OC(c2ccco2)CN1C(=O)C(Cl)Cl (stereo not drawn) [compound 1]
% Inhibition 5 DAP SHCA (Shattercane (SHCA); [3]): 0% | % Inhibition 13 DAP SHCA (Shattercane (SHCA); [4]): 80% | % Inhibition SHCA (Shattercane (SHCA); [5]): 75% | % Inhibition SHCA (Shattercane (SHCA); [6]): 70% | % Inhibition SHCA (Shattercane (SHCA); [7]): 90% | % Inhibition SHCA (Shattercane (SHCA); [8]): 70% | % Inhibition SHCA (Shattercane (SHCA); [9]): 30% | % Inhibition SHCA (Shattercane (SHCA); [10]): 55% | % Inhibition 5 DAP SHCA (Shattercane (SHCA); in vivo): 20% | % Inhibition 13 DAP SHCA (Shattercane (SHCA); in vivo): 75% | % Inhibition 5 DAP VELE (Velvetleaf (VELE); [3]): 0% | % Inhibition 13 DAP VELE (Velvetleaf (VELE); [4]): 90% | % Inhibition VELE (Velvetleaf (VELE); [5]): 70% | % Inhibition 5 DAP VELE (Velvetleaf (VELE); Herb. […], 5 DAP, before herbicide application): 0% | % Inhibition VELE (Velvetleaf (VELE); [6]): 65% | % Inhibition VELE (Velvetleaf (VELE); [7]): 70% | % Inhibition VELE (Velvetleaf (VELE); [8]): 90% | % Inhibition VELE (Velvetleaf (VELE); [9]): 75% | % Inhibition VELE (Velvetleaf (VELE); [10]): 80% | % Inhibition 5 DAP VELE (Velvetleaf (VELE); in vivo): 10% | % Inhibition 13 DAP VELE (Velvetleaf (VELE); in vivo): 90% | % Inhibition VELE (Velvetleaf (VELE); in vivo): 75% and 65% and 80% and 70% and 85% | % Inhibition GIFT (Giant foxtail (GIFT) [1]; […], PPI, 13 days after PPI (Table 31)): 70% | % Inhibition GIFT (Giant foxtail (GIFT) [1]; in vivo): 45% and 60% and 85% and 65% and 90% and 55% | % Inhibition GIFT (Giant foxtail (GIFT) [2]; Antidote + Biocide No. 1 in furrow, Herbicide No. 1 0.14 Kg/Ha POE, 8 days after POE): 0% | % Inhibition GIFT (Giant foxtail (GIFT) [2]; Antidote + Biocide No. 1 in furrow, Herbicide No. 4 0.17 Kg/Ha POE, 8 days after POE): 0% | % Inhibition GIFT (Giant foxtail (GIFT) [2]; Antidote + Biocide No. 1 in furrow, Herbicide No. 5 0.07 Kg/Ha POE, 8 days after POE): 0% | % Inhibition GIFT (Giant foxtail (GIFT) [2]; Antidote + Biocide No. 1 in furrow, Herbicide No. 6 0.01 Kg/Ha POE): 60% | % Inhibition GIFT (Giant foxtail (GIFT) [2]; Antidote + Biocide No. 1 in furrow, Herbicide No. 7 0.56 Kg/Ha POE, 8 days after POE): 85% | % Inhibition GIFT (Giant foxtail (GIFT) [2]; Antidote + Biocide No. 1 in furrow, Herbicide No. 9 0.009 Kg/Ha POE): 30% | % Inhibition GIFT (Giant foxtail (GIFT) [2]; Antidote + Biocide No. 1 in furrow, Herbicide No. 10 0.002 Kg/Ha POE, 8 days after POE): 0% | % Inhibition GIFT (Giant foxtail (GIFT) [2]; Antidote + Biocide No. 1 in furrow, Herbicide No. 15 0.0044 Kg/Ha POE, 8 days after POE): 20% | % Inhibition GIFT (Giant foxtail (GIFT) [2]; Antidote + Biocide No. 1 in furrow, Herbicide No. 16 0.01 Kg/Ha POE): 35% | % Inhibition GIFT (Giant foxtail (GIFT) [2]; Antidote + Biocide No. 1 in furrow, Herbicide No. 18 0.0044 Kg/Ha POE): 65% | % Inhibition GIFT (Giant foxtail (GIFT) [2]; Antidote + Biocide No. 1 in furrow, Herbicide No. 19 0.28 Kg/Ha POE): 35% | % Inhibition GIFT (Giant foxtail (GIFT) [2]; Antidote + Biocide No. 1 in furrow, Herbicide No. 21 0.14 Kg/Ha POE): 35% | % Inhibition GIFT (Giant foxtail (GIFT) [2]; Antidote + Biocide No. 1 in furrow, Herbicide No. 23 0.0006 Kg/Ha POE): 20% | % Inhibition GIFT (Giant foxtail (GIFT) [2]; Herbicide No. 1 0.14 Kg/Ha POE + Biocide No. 1 in furrow, no antidote, 8 days after POE): 0% | % Inhibition GIFT (Giant foxtail (GIFT) [2]; Herbicide No. 1 0.14 Kg/Ha POE alone, 8 days after POE): 0% | % Inhibition COTT (cotton (COTT); Table 64, Herb. No. 1 0.018 Kg/Ha + Biocide No. 1 8.96 Kg/Ha + Antidote 4.48 Kg/Ha): 20% | % Inhibition COTT (cotton (COTT); Table 64, Herb. No. 1 0.07 Kg/Ha + Biocide No. 1 8.96 Kg/Ha + Antidote 4.48 Kg/Ha): 35% | % Inhibition COTT (cotton (COTT); Table 64, Herb. No. 1 0.28 Kg/Ha + Biocide No. 1 8.96 Kg/Ha + Antidote 4.48 Kg/Ha): 35% | % Inhibition COTT (cotton (COTT); Table 65, Herb. No. 1 0.018 Kg/Ha + Biocide No. 1 8.96 Kg/Ha + Antidote 4.48 Kg/Ha): 10% | % Inhibition COTT (cotton (COTT); Table 65, Herb. No. 1 0.07 Kg/Ha + Biocide No. 1 8.96 Kg/Ha + Antidote 4.48 Kg/Ha): 20% | % Inhibition COTT (cotton (COTT); Table 65, Herb. No. 1 0.28 Kg/Ha + Biocide No. 1 8.96 Kg/Ha + Antidote 4.48 Kg/Ha): 45%

COC(=O)COC(c1ccccc1)c1ccccc1 [Antidote No. 12, Acetic acid, (diphenylmethoxy)-, methyl ester]
corn injury (Corn): effectively reduced
